Measured values from patent publication US5010083A, “2,6-methano-1,3-benzodiazocine compounds which have useful pharmaceutical utility” (priority 1989, dated 1991).
Counter-ions that a name gives are not always drawn.

Target: T1, brain acetylcholinesterase (AChE) (Rattus norvegicus, UniProt P37136)
T1 construct: corpora striata dissected free, weighed and homogenized in 19 volumes; from tissue; host or cells: corpora striata of male Wistar rats, whole homogenate
T1 sequence (P37136 32-614): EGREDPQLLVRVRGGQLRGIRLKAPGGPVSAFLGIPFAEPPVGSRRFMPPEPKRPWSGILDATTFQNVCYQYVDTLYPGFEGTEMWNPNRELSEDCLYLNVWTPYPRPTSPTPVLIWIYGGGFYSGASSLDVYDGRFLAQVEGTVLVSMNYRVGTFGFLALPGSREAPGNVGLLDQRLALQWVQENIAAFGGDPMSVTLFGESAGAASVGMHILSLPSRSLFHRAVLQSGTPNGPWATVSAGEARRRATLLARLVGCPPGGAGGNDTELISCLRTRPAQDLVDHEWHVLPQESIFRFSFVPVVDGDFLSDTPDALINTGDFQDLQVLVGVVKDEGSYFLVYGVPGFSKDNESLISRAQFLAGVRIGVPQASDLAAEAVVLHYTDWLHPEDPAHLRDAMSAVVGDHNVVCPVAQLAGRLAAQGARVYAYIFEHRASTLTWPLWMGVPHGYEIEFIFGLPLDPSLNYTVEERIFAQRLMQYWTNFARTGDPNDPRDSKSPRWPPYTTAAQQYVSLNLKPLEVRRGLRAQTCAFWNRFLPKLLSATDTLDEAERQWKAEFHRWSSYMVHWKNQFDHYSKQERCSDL
Experiment: In Vitro Inhibition of Acetylcholinesterase Activity in Rat Striatum
Assay type: biochemical, rat (male Wistar)
Excerpt: Cholinesterases are found throughout the body, both in the brain and in serum. However, only brain acetylcholinesterase (AChE) distribution is correlated with central cholinergic innervation. […] We have determined in vitro inhibition of acetylcholinesterase activity in rat striatum according to the method described below.
The method described below was used in this invention for assaying anticholinesterase activity.
1. 0.05M Phosphate buffer, pH 7.2
(c) add (a) to (b) until pH reaches 7.2
(a) 9.9 mg 5,5-dithiobisnitrobenzoic acid (DTNB) (0.25 mM)
(b) 99 mg s-acetylthiocholine chloride (5 mM)
(c) q.s. to 100 ml with 0.05M phosphate buffer, pH 7.2 (reagent 1)
Male Wistar rats are decapitated, brains rapidly removed, corpora striata dissected free, weighed and homogenized in 19 volumes (approximately 7 mg protein/ml) of 0.05M phosphate buffer, pH 7.2 using a Potter-Elvehjem homogenizer. […]
Using the indicated instrument settings the ABA-100 automatically reads the color reaction and prints out the results in enzyme units after 15 minutes.
2. The enzyme activity can also be measured with a Gilford 250 spectrophotometer. […]
The uninhibited activity of the enzyme (tissue homogenate) is first determined. […] The reaction rate is determined by the slope of the recorded absorbance change. The actual rate (moles/liter/min) can be calculated as described in the following formula

SMILES | IC50 [µM]
CN1CCC2CC1N(C)c1ccc(OC(=O)NC3CCCCC3)cc12 (centres unmarked) [1,2,3,4,5,6-Hexahydro-1,3-dimethyl-2,6-methano-1,3-benzodiazocin-8-ol, cyclohexyl carbamate] | 10.7
CNC(=O)Oc1ccc2c(c1)C1CCN(C)C(C1)N2C (centres unmarked) [1,2,3,4,5,6-Hexahydro-1,3-dimethyl-2,6-methano-1,3-benzodiazocin-8-ol, methyl carbamate fumarate] | 0.058
